In patent US10980776B2, “Synergistic pharmaceutical combination for the treatment of squamous cell carcinoma of head and neck” (Piramal Enterprises Limited, priority 2011, dated 2021):

Columns and labels:
Detroit-562 cells = test: CCK-8 cytotoxicity assay, determination of inhibitory concentrations in Detroit-562 cells; assay type: cell-based; conditions: 72 hr
Procedure: (§1) Logarithmically growing cells were plated at a density of 3×10^3 cells/well and allowed to recover overnight. […] After 72 hours, cell toxicity was determined by CCK-8 (Cell Counting Kit-8) reagent (Dojindo Molecular Technologies, Japan); WST-8 (2-(2-methoxy-4-nitrophenyl)-3-(4-nitrophenyl)-5-(2, 4-disulfophenyl)]-2H-tetrazolium, monosodium salt) assay. In accordance with the manufacturer's instructions, 5 μl/well CCK-8 reagent was added and plates were incubated for 2 hours. The toxicity was determined by measuring the absorbance on Tecan Sapphire multi-fluorescence micro-plate reader (Tecan, Germany, GmbH) at a wavelength of 450 nm corrected to 650 nm and normalized to controls.
(§2) CCK-8 allows convenient assays using Dojindo's tetrazolium salt, WST [8[(2-(2-methoxy-4-nitrophenyl)-3-(4-nitrophenyl)-5-(2,4-disulfophenyl)-2H-tetrazolium, monosodium salt], which produces a water-soluble formazan dye upon bioreduction in the presence of an electron carrier, 1-Methoxy PMS. CCK-8 solution is added directly to the cells; no pre-mixing of components is required. CCK-8 is a sensitive nonradioactive colorimetric assay for determining the number of viable cells in cell proliferation and cytotoxicity assays. WST-8 is bio-reduced by cellular dehydrogenases to an orange formazan product that is soluble in tissue culture medium. The amount of formazan produced is directly proportional to the number of living cells. The detection sensitivity of cell proliferation assays using WST-8 is higher than assays using the other tetrazolium salts such as MIT, XTT, MTS or WST-1. Optical Density was determined at measurement wavelength of 450 nm and reference wave length of 630 nm.
(§3) The cells were seeded at a density of 3000 cells/well, in a 200 μL in tissue culture grade 96 well plate and were allowed to recover for 24 hrs in a humidified 5%±0.2 CO2 incubator at 37° C.±0.5° C. […] The final DMSO concentration was 0.5% in wells. Plates were incubated for 48 hrs in humidified 5%±0.2 CO2 incubator at 37±0.5° C. After 48 hrs the plates were removed from CO2 incubator and 5 μL of Cell counting Kit (CCK-8) per well was added. The same plate was kept at 37° C. for 3 hrs, and allowed to come to room temperature. The absorbance at a wavelength of 450 nm was read on Tecan safire reader. The percent cytotoxicity was calculated using the following formula.

FADU cells [1] = test: cells; conditions: Homo sapiens; for cytotoxicity at 4.1 µM: single agent at IC50 (compound B 4.1 μM); for cytotoxicity at 9.6 µM: single agent at IC70 (compound B 9.6 μM)
SCC-25 cells [2] = test: CCK-8 cytotoxicity assay, determination of inhibitory concentrations in SCC-25 cells; assay type: cell-based; conditions: SCC-25 cells, 72 hr
Procedure: as §1, §2, §3

FADU cells [3] = test: CCK-8 cytotoxicity assay, determination of inhibitory concentrations in FADU cells; assay type: cell-based, human; conditions: 72 hr
Procedure: as §1, §2, §3

SCC-25 cells [4] = test: Combination studies (single and sequential combination dosing), % cytotoxicity in SCC-25 cells; conditions: Homo sapiens, SCC-25, SCC-25; for cytotoxicity at 1.1 µM: single agent at IC50 (compound B 1.1 μM)
Procedure: as §1, §2
Sorafenib in the following dose of final concentration 0.18 μM and compound A in the following doses of final concentration 0.1 μM, 0.4 μM and 4.1 μM were analyzed in single dose and in all possible combinations of the dose range for the two anticancer agents mentioned above. The sequence of treatment is as follows; the SCC-25 cells were treated with sorafenib for 0 to 24 hrs. At the end of 24 hrs the cells were washed two times with plain MEM (minimum essential media) medium. Fresh MEM with 10% serum (200 μL/well) was added, followed by treatment with compound A from 24 hrs to 96 hrs.
Sorafenib in the following dose of final concentration 0.18 μM and compound B in the following doses of final concentration 0.2 μM, 1.1 μM and 4.8 μM were analyzed in single dose and in all possible combinations of the dose range for the two anticancer agents mentioned above. The sequence of treatment is as follows; the SCC-25 cells were treated with sorafenib for 0 to 24 hrs. At the end of 24 hrs the cells were washed two times with plain MEM medium. Fresh MEM with 10% serum (200 μL/well) was added, followed by treatment with compound B from 24 hrs to 96 hrs.
Lapatinib in the following dose of final concentration 0.2 μM and compound A in the following doses of final concentration 0.2 μM, 0.5 μM and 3.3 μM were analyzed in single dose and in all possible combinations of the dose range for the two drugs mentioned above. The sequence of treatment is as follows; the SCC-25 cells were treated with lapatinib for 0 to 24 hrs. At the end of 24 hrs the cells were washed two times with plain MEM medium. Fresh MEM with 10% serum (200 μL/well) was added, followed by treatment with compound A from 24 hrs to 96 hrs.
Lapatinib in the following dose of final concentration 0.2 μM and compound B in the following doses of final concentration 0.2 μM, 1.1 μM and 4.8 μM were analyzed in single dose and in all possible combinations of the dose range for the two drugs mentioned above. The sequence of treatment is as follows; the SCC-25 cells were treated with lapatinib for 0 to 24 hrs. At the end of 24 hrs the cells were washed two times with plain MEM medium. Fresh MEM with 10% serum (200 μL/well) was added, followed by treatment with compound A from 24 hrs to 96 hrs.

**Q.** How did the IC30 (Detroit-562 cells) turn out when `CN1CC[C@@H](c2c(O)cc(O)c3c(=O)cc(-c4ccc(C(F)(F)F)cc4Cl)oc23)[C@@H]1CO.Cl` [Compound B, (+)-trans-2-(2-chloro-4-trifluoromethyl-phenyl)-5,7-dihydroxy-8-(2-hydroxymethyl-1-methyl-pyrrolidin-3-yl)-chromen-4-one hydrochloride] was run?
**A.** 2.7 µM

**Q.** What about the IC70 (Detroit-562 cells) of the same compound?
**A.** 25.2 µM

**Q.** And the IC50 (Detroit-562 cells; Homo sapiens)?
**A.** 14.1 µM

**Q.** And the IC90 (Detroit-562 cells; Homo sapiens)?
**A.** 44.6 µM

**Q.** And the cytotoxicity at 2.3 µM (FADU cells [1]; single agent at IC30 (lapatinib 0.8 μM; compound B 2.3 μM))?
**A.** 21%

**Q.** And the cytotoxicity at 2.3 µM (FADU cells [1]; single agent at IC30 (sorafenib 3.9 μM; compound B 2.3 μM))?
**A.** 14%

**Q.** What about the cytotoxicity at 4.1 µM (FADU cells [1]; lapatinib study) of the same compound?
**A.** 26%

**Q.** What about the cytotoxicity at 4.1 µM (FADU cells [1]; sorafenib study) of the same compound?
**A.** 20%

**Q.** What about the cytotoxicity at 9.6 µM (FADU cells [1]; lapatinib study) of the same compound?
**A.** 33%

**Q.** And the cytotoxicity at 9.6 µM (FADU cells [1]; sorafenib study)?
**A.** 27%

**Q.** And the IC90 (SCC-25 cells [2]; Homo sapiens)?
**A.** 41.8 µM

**Q.** What about the IC50 (SCC-25 cells [2]; Homo sapiens, read-out: IC50) of the same compound?
**A.** 1.1 µM

**Q.** And the IC30 (SCC-25 cells [2])?
**A.** 0.2 µM

**Q.** What about the IC70 (SCC-25 cells [2]) of the same compound?
**A.** 4.8 µM

**Q.** What about the IC30 (FADU cells [3]) of the same compound?
**A.** 2.3 µM

**Q.** What about the IC70 (FADU cells [3]) of the same compound?
**A.** 9.6 µM

**Q.** What about the IC50 (FADU cells [3]; Homo sapiens) of the same compound?
**A.** 4.1 µM

**Q.** And the IC90 (FADU cells [3]; Homo sapiens)?
**A.** 31.4 µM

**Q.** And the cytotoxicity at 0.2 µM (SCC-25 cells [4]; single agent at IC30 (lapatinib 0.2 μM; compound B 0.2 μM))?
**A.** 16%

**Q.** And the cytotoxicity at 0.2 µM (SCC-25 cells [4]; single agent at IC30 (sorafenib 0.18 μM; compound B 0.2 μM))?
**A.** 16%

**Q.** And the cytotoxicity at 1.1 µM (SCC-25 cells [4]; lapatinib study)?
**A.** 19%

**Q.** And the cytotoxicity at 1.1 µM (SCC-25 cells [4]; sorafenib study)?
**A.** 19%
